Assay results published in patent publication US20050267114A1, “Triazaspiro[5.5]undecane derivatives and drugs comprising the same as the active ingredient” (priority 2002, published 2005).
Structures can show the parent of a compound that is named as a salt.

Target: T1, human CCR5 (Homo sapiens, UniProt P51681)
T1 construct: expressed in transfected cells; host or cells: CHO-dhfr(-) cells stably transfected with plasmid pEF-BOS-bsr/hCCR5
Assay: Inhibition test on the binding of RANTES to CCR5 (RANTES-induced transient increase of Ca ion)
Type: cell-based
Conditions: human RANTES 10 nM; CCR5/CHO cell; Ca2+ transient increase
Experimental: (1) Isolation of Human CCR5 Gene
Human placental cDNA was prepared using Marathon cDNA amplification kit (Clontech). PCR primers hCCR5Xbal-F1:
Using the human placental cDNA as the template and using Ex Taq (Takara), PCR reaction (2 minutes at 95° C.→(30 seconds at 95° C., 45 seconds at 60° C., 1 minute at 72° C.)×35 times) was carried out. The thus amplified PCR product was subjected to a 1% agarose gel electrophoresis, purified using QIAquick Gel Extraction Kit (QUIAGEN) and then digested with a restriction enzyme XbaI. The digested fragments were ligated to an expression vector pEF-BOS-bsr using DNA Ligation Kit Ver. 2 (Takara) and transformed into Escherichia coli DH5a. […]
The thus established human CCR5 stably over-expressing CHO cell (CCR5/CHO cell) was suspended in Ham's F-12 medium containing FBS (10%) and dispensed in […] portions into a 96 well plate. […] Transient increase in the intracellular Ca^2+ concentration induced by the human RANTES was measured using a Ca^2+ detector for 96 well use (Hamamatsu Photonics), and inhibition ratio (%) of the test compound was calculated by the following calculation formula. Inhibition ratio=(Ec−Ea)/Ec×100 • Ec: measured value of Ca^2+ transient increase by RANTES • Ea: measured value of Ca^2+ transient increase by RANTES when a test compound was added.

T1 sequence (P51681 whole entry): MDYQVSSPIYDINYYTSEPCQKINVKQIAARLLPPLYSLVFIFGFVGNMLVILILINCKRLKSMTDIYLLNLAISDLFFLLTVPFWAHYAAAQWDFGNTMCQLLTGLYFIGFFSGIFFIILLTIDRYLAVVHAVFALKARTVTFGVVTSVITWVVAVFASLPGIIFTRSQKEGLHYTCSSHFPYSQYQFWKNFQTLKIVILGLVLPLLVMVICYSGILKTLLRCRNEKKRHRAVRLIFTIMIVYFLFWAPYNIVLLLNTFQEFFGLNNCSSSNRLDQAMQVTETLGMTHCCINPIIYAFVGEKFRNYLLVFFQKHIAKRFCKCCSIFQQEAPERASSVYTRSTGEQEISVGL

CCCCN1C(=O)[C@@H]([C@H](O)C(CC)CC)NC(=O)C12CCN(Cc1ccc(Cc3ccc(C(=O)NC)cc3Cl)cc1)CC2 [Example 3(179), (3R)-1-butyl-2,5-dioxo-3-((1R)-1-hydroxy-2-ethylbutyl)-9-(4-(4-methylaminocarbonyl-2-chlorophenylmethyl)phenylmethyl)-1,4,9-triazaspiro[5.5]undecane hydrochloride]
IC50: 10 nM
